Zone of inhibition data for three compounds are collected here from ChEMBL document CHEMBL3045896, “Synthesis of novel porphyrin-based lipids and their antibacterial activity” (2011).

Structures are written as SMILES.

What all share (format): functional
Common to all, as to details: read-out: DIZ

Assay [1] concerns Bacillus subtilis. As to the kind of experiment: Antibacterial activity against Bacillus subtilis MTCC 619 at 75 ug/ml after overnight incubation by disk diffusion method. (In general: In agar diffusion tests the substance spreads into inoculated agar from a disc or well.)
In assay [2] the test system is Klebsiella pneumoniae. The assay is described as follows: Antibacterial activity against Klebsiella pneumoniae MTCC 109 at 75 ug/ml after overnight incubation by disk diffusion method.
Assay [3] has as its system Proteus vulgaris. The assay is described as follows: Antibacterial activity against Proteus vulgaris MTCC 1771 at 75 ug/ml after overnight incubation by disk diffusion method.
The subject of assay [4] is Staphylococcus aureus. As to the kind of experiment: Antibacterial activity against Staphylococcus aureus MTCC 96 at 75 ug/ml after overnight incubation by disk diffusion method.
Assay [5] has as its system Escherichia coli. As to the kind of experiment: Antibacterial activity against Escherichia coli MTCC 722 at 75 ug/ml after overnight incubation by disk diffusion method.
Assay [6] has as its system Bacillus subtilis. The assay is described as follows: Antibacterial activity against Bacillus subtilis MTCC 619 at 30 ug/ml after overnight incubation by disk diffusion method.
Assay [7] deals with Klebsiella pneumoniae. The assay is described as follows: Antibacterial activity against Klebsiella pneumoniae MTCC 109 at 30 ug/ml after overnight incubation by disk diffusion method.
The subject of assay [8] is Staphylococcus aureus. The assay is described as follows: Antibacterial activity against Staphylococcus aureus MTCC 96 at 30 ug/ml after overnight incubation by disk diffusion method.
Assay [9] deals with Proteus vulgaris. As to the kind of experiment: Antibacterial activity against Proteus vulgaris MTCC 1771 at 30 ug/ml after overnight incubation by disk diffusion method.
For assay [10], the system named is Escherichia coli. The assay is described as follows: Antibacterial activity against Escherichia coli MTCC 722 at 30 ug/ml after overnight incubation by disk diffusion method.

With `CCCCCCCCCCCCCCCCN(CCCCCCCCCCCCCCCC)Cc1c2nc(cc3ccc(cc4nc(cc5ccc1[nH]5)C=C4)[nH]3)C=C2`, the zone of inhibition at 75 µg/mL turned out to be 16 mm in the assay with Bacillus subtilis [1]; 12 mm in the assay on Klebsiella pneumoniae [2]; 14 mm in the assay with Proteus vulgaris [3]; 15 mm with Staphylococcus aureus [4]; 14 mm in the assay on Escherichia coli [5].
As to `CCCCCCCCCCCCCCCCC/C1=c2\cc/c([nH]2)=C(\CCCCCCCCCCCCCCCCC)C2=N/C(=C\C3=NC(=CC3)/C=C3/C=CC1=N3)C=C2`, the zone of inhibition at 75 µg/mL with Bacillus subtilis [1] came to 14 mm; in the assay with Klebsiella pneumoniae [2], 10 mm; in the assay with Proteus vulgaris [3], 12 mm; in the assay with Staphylococcus aureus [4] it was 13 mm; in the assay with Escherichia coli [5], 13 mm.
For the compound `O=C(N[C@H](CO)[C@H](O)c1ccc([N+](=O)[O-])cc1)C(Cl)Cl` [CHLORAMPHENICOL], the zone of inhibition at 30 µg/mL with Bacillus subtilis [6] came to 23 mm; in the assay on Klebsiella pneumoniae [7], 24 mm; in the assay on Staphylococcus aureus [8] it was 23 mm; in the assay on Proteus vulgaris [9], 14 mm; in the assay with Escherichia coli [10], 31 mm.
